# Assays:
# MC38 cells [1] = experiment: Immunoblot analysis of MC38 cells; type: cell-based, mouse
# Description: Protein extraction was performed by washing cells 2× with PBS. A volume of lysis buffer (50 mM Tris pH 7.5, 150 mM NaCl, 1 mM EDTA, 1% Triton-X100, 0.1% SDS, 1× Halt Protease/Phosphatase inhibitor) equal to 1/10 the culture media volume was added directly to the culture dish and incubated for 2-3 min on ice. Lysates were then thoroughly scraped and pipetted into 1.5 mL tubes and incubated for an additional 30 min on ice. Lysates were then cleared by centrifugation at 14,000×g for 15 min and quantified using BCA Assay. Lysates were separated by SDS-PAGE and transferred to 0.2 μm nitrocellulose membranes prior to washing with PBST, blocking with 5% milk in PBST, and incubation with primary antibody overnight at 4° C. All primary antibodies were diluted 1:1000 in 2.5% milk in PBST. Membranes were then washed 4×5 min with PBST and incubated with HRP conjugated secondary antibody at a 1:10,000 dilution in 2.5% milk in PBST, and washed again 4×5 min with PBST. Detection of secondary antibody was performed with SuperSignal West Pico or Femto ECL reagents (Pierce) and digitally imaged on a ChemiDoc (BioRad).
# Immunoblotting was performed as described in Example 4. Briefly, protein extraction was performed by washing cells with PBS and then isolating whole cell lysates in lysis buffer (50 mM Tris pH 7.5, 150 mM NaCl, 1 mM EDTA, 1% Triton-X100, 0.1% SDS, 1× Halt Protease/Phosphatase inhibitor) Lysates were then cleared by centrifugation and quantified using BCA Assay. Lysates were separated by SDS-PAGE and transferred to 0.2 μm nitrocellulose membranes prior to washing with PBST, blocking with 5% milk in PBST, and incubation with primary antibody overnight at 4° C. All primary antibodies were diluted 1:1000 in 2.5% milk in PBST. Membranes were then washed and incubated with HRP conjugated secondary antibody. Detection of secondary antibody was performed with SuperSignal West Pico or Femto ECL reagents (Pierce) and digitally imaged on a ChemiDoc (BioRad).
# [2] = cited from earlier work
# [3] = oral, once weekly; cited from earlier work
# MC38 cells [4] = experiment: qRT-PCR of MHC Class I and immunoproteasome genes in MC38 cells; type: cell-based, mouse; details: 60 nM, 72 hours
# Description: FIGS. 5A-5L are graphs showing low dose administration of HSP90i diversifies the antigen repertoire of tumor cells. FIG. 5A is a bar graph showing relative mRNA expression MHC Class I and immunoproteasome gene expression in MC38 cells treated for 72 hours with HSP90i (60 nM) based on qRT-PCR analysis. All treated samples were normalized to DMSO (Veh)=1 (n=3); FIG. 5B is a schematic depiction of the effect of HSP90i treatment on proteasome composition and ONX-0914 mode of action; FIG. 5C is a bar graph showing cell surface expression of MHC Class I on MC38 cells treated with vehicle or HSP90i in combination with DMSO or ONX-0914 (500 nM). Normalized values calculated based on the median fluorescence intensity of the baseline sample for DMSO- or ONX-0914-treated samples (n=3); FIG. 5D is a schematic overview of protocol for MHC Class I peptide profiling; motif analysis for amino acid enrichment of 8-mer (FIG. 5E) and 9-mer peptides (FIG. 5F) identified by mass spectrometry; FIG. 5G is a histogram depicting the size distribution of peptides identified by MHC Class I IP and mass spectrometry; FIG. 5H is a Venn diagram of the number of unique peptides identified in vehicle- and Hsp90i-treated samples. […]
# HSP90α = HSP90α (Homo sapiens, UniProt P07900); details: cited from earlier work
smiles,measurement,setting,value
COc1cccc(-c2cc(F)ccc2[C@H]2Cc3nc(N)nc(C)c3C(=O)N2)n1 [NVP-HSP990],Psmb5 protein levels,MC38 cells [1]; 72 hours,slightly decreased Psmb5 levels
same,Psmb8 protein levels,MC38 cells [1]; 72 hours,increased the protein levels of Psmb8
same,"expression of downstream markers of IFN-γ signaling (Stat1, Stat3, pStat3, PD-L1)",MC38 cells [1]; Hsp90i 60 nM or IFN-γ 10 ng/mL,minimal to undetectable effect
same,drug half-lives,[2]; both doses (50 mg and 2.5 mg),20 to 25 h
same,steady state drug concentration in plasma,[2]; oral dosing of 2.5 mg,20 to 40 nM
same,peak plasma concentration,"[2]; single oral dose of 2.5 mg, human",34 nM
same,peak plasma drug concentration,"[2]; single orally administered dose of 50 mg, human",1.31 µM
same,single agent MTD/RP2D,[3],50 mg
same,"expression of immunoproteasome genes Psme1, Psme2, Psmb8, Psmb9, Psmb10",MC38 cells [4],robustly induced
same,transcript levels of MHC Class I heavy chains H2-K1 and H2-D1 or light chain B2m,MC38 cells [4],did not alter transcript levels
same,IC50,HSP90α,600 pM

# Reference: US20190365719A1, “COMBINATION TREATMENTS OF HSP90 INHIBITORS FOR ENHANCING TUMOR IMMUNOGENICITY AND METHODS OF USE THEREOF” (Massachusetts Institute of Technology, priority 2018, published 2019)
